The nature of data set [1]: Hydrolytic rate constants in aqueous buffered solution at pH 12, 37°C (HPLC). Particulars: for observed First Order Hydrolytic Rate Constants (k) K ± S.E: average of three runs ± S.E.M. Format: physicochemical. How it is done: A high pressure liquid chromatography (HPLC) method was used for the determination of rate of hydrolysis of the newly prepared tropanyl esters in aqueous buffered solution at pH 12.0 and in human plasma.
(§1) The chromatographic analysis was performed in a system consisting of LCD/Milton Roy Consta Metric III metering pump and LCD UV III Monitor Detector operated at 254 nm. A 30 cm x 3.9 mm (internal diameter) reverse phase ASI/U Bondpak C18 column operated at ambient temperature was used for the analysis. The mobile phase consisted of 32% acetonitrile in 0.01 M potassium dihydrogen phosphate, 0.004 M 1-octanesulfonic acid, sodium in 0.1% acetic acid at a flow rate of 2.3 ml/min.
Sodium hydroxide and sodium dibasic phosphate were used to prepare the buffer at pH 12. The ionic strength was maintained at 0.1 M with sodium chloride.
One hundred microliters of a freshly prepared solution of the compound in methanol was added to 10 ml buffered solution, previously equilibrated to 37°C in a water bath and mixed thoroughly to make an initial concentration of 6 x 10⁻³ mol. liter⁻¹. Samples of 100 µl were injected into the column at various time intervals. […] A mobile phase of 40% acetonitrile was used to separate compounds 4 and 6 at a flow rate of 2.0 ml/min.
The previous method adapted for the hydrolysis of compounds 1, 2, 3 and 5 was used for the determination of rate of hydrolysis of compounds 4, 6 and 7. In case of compounds 4 and 6, the mobile phase is 40% acetonitrile, 0.01 M KH₂PO₄, 0.04M 1-octanesulfonic acid sodium salt and 0.1% HAC, at a flow rate 2 ml/min.

Data set [2] relates to carbachol-induced spasms of strips of ileum. The data set can be described thus: Anticholinergic activity in vitro: inhibition of carbachol-induced spasms of guinea pig ileum strips. Format: cell-based. The settings on record: for Kb: Cavia porcellus. The protocol:
The anticholinergic activity of all the new compounds was investigated in vitro by studying the inhibitory action of the drugs on carbachol-induced spasms of strips of ileum from freshly killed guinea pigs. The terminal ileum from guinea pig (200-500 g) was cut into 2-3 cm strips and suspended in freshly prepared Tyrode's solution in 40 ml organ bath. The solution was aerated with 95% oxygen and 5% carbon dioxide at 37°C. A tension of 1 g was applied to the tissue, and cumulative-response curves recorded with carbachol until constant responses were obtained. A concentration of the antagonist was then added to the bath and after 10 seconds, further concentration response curves to carbachol were established. This procedure was then repeated using increasing concentrations of the antagonist. EC₅₀ was calculated for carbachol alone and for carbachol in the presence of the various antagonist concentrations. Atropine was used as standard for comparison. The PA₂ was calculated as follows: PA₂ = log ((A)/(a)-1) -log [antagonist] [formula] A = EC₅₀ or carbachol in presence of the antagonist a = EC₅₀ for carbachol alone before adding antagonist

Data set [3] can be described thus: Enzymatic hydrolysis in rat liver homogenate at 37°C (HPLC). Format: in vitro ADME, Sprague-Dawley rats. The settings on record: for Rates of hydrolysis in liver homogenate K ± S.E.: 20% rat liver homogenate; for half-life / half-life at 6000 µM: rat, liver homogenate. How it is done:
The liver homogenate was prepared by the following method. Two Sprague-Dawley rats were killed by decapitation, and the livers were removed, weighed and homogenized in a tissue homogenizer in 0.11 M aqueous phosphate buffer, pH 7.4, to make 20% liver homogenate. The homogenate was centrifuged and the supernatant was used for the test. 100 l of 0.6 M solution of the ester in methanol was mixed with 10 ml of the homogenate, previously equilibrated to 37°C in a water bath, to result in an initial concentration of 6 x 10⁻³ mol/liter⁻¹. samples of 1.0 ml were withdrawn at time intervals from the medium, added immediately to 3 ml ice-cold acetonitrile, shaken vigorously, and placed in a freezer. When all samples had been collected, they were centrifuged, and each supernantant was analyzed by HPLC.

Data set [4] is described as follows: Hydrolysis of tertiary ethyl ester (2) and formation of its degradation product (7) at pH 12, 37°C (HPLC). Also noted: dose or concentration left out as unconfirmed. Particulars: 0.01 N NaOH pH at 37°C, read-out: t 1/2, hydrolysis (disappearance) of tertiary ethyl ester (2). Format: physicochemical. The protocol:
The mobile phase used for the separation of compound (2) and its degradation product, the half ester (7) consisted of 32% MeCN, 0.01M KH₂PO₄, 0.004M 1-octanesulfonic acid sodium salt and 0.1% acetic acid. At flow rate of 1.5 ml/min (2) and (7) have retention times of 9 min and 4.6 min, respectively.
100 microliters of a freshly prepared solution of compound (2) in methanol was added to 10 ml buffered solution (pH 12), previously equilibrated to 37°C in a water bath to result in an initial concentration of 6 x 10⁻³ mol liter⁻¹. Samples of 1 ml were taken at time intervals and mixed with 3 ml of acetonitrile. 100 microliters of the collected samples were injected and disappearance of (2) and formation of (7) was followed by HPLC.

A short description of data set [5]: Enzymatic hydrolytic cleavage rates in human plasma at 37°C (HPLC). The class given is in vitro ADME. Details: half-life: dose or concentration left out as unconfirmed. The settings on record: for half-life: read-out: half lives (t 1/2) (converted). How it is done: as §1
Freshly collected plasma was used which contained about 80% plasma diluted with anticoagulant citrate phosphate dextrose solution, U.S.P.
A 100 µl volume of a freshly prepared solution of the compound in methanol was added to 10 ml plasma, previously equilibrated a 37°C in a water bath, and mixed thoroughly to result in an initial concentration of 6 x 10⁻³ mol. liter⁻¹. One ml samples of plasma were withdrawn from the test medium, mixed immediately with 3 ml ice cold acetonitrile, centrifuged and the supernatant analyzed by HPLC. The first order hydrolytic rate constant was determined by following the disappearance of the compound as function of time.

Data set [6] is described as follows: Hydrolysis of tropanyl hydrogen phenyl malonate (7) to the dibasic acid (8) at pH 12, 37°C (HPLC). The class given is physicochemical. The settings on record: 0.01 n naoh; 0.01 N sodium hydroxide, pH 12 at 37°C; read-out: t 1/2, hydrolysis (disappearance) of (7). How it is done:
The previously described method for the determination of rate of hydrolysis of compound (2) was followed for the determination of hydrolysis of compound (7).
The disappearance of compound (7) was followed by HPLC.
The concentration of the formed dibasic acid was determined by HPLC. 15% acetonitrile, 0.01M KH₂ PO₄ and 0.1% acetic acid was used as a mobile phase. At a flow rate of 2 ml/min, the product has a retention time of 4 min.
The collected samples after determination of rate of disappearance of compound (7) were used for the determination of rate of formation of the hydrolysis product (8). 100 microliters of the sample was injected and the formation of the product was followed by HPLC.

Where [7] appears, read: 0.01 N sodium hydroxide at pH 12.0, at 37°C.
Setting [8] is: 0.01 n naoh buffer, 0.01 N sodium hydroxide at pH 12.0, at 37°C, read-out: half-life (t 1/2).
[9] abbreviates: aqueous buffer, aqueous solution pH 12, 37°C, average of three runs, read-out: t 1/2 (Min) AQUEOUS SOLN, pH 12, 37°C.
Setting [10] is: guinea pig ileum, against carbachol, average of two experiments (compounds 1 and 4: three), read-out: PA2 (converted).
Setting [11] is: pH 7.4, 20% rat liver homogenate, pH 7.4, 37°C, read-out: t 1/2 in liver homogenate.
The mark [12] stands for this setting: pH 7.4, rat liver homogenate, 37°C, average of three runs, read-out: t 1/2 (Min) RAT LIVER HOMOGENATE, 37°C.
Where [13] appears, read: 0.01 m naoh buffer, 0.01 M sodium hydroxide at pH 12 and 37°C, read-out: half lives (t 1/2).
Where [14] appears, read: method of Example 19, quaternary methiodide soft esters, read-out: PA2 QUATERNARY AMINE (converted).

SMILES strings stand for the structures. Read-outs that look alike come from different tables or passages of the source.

Results on nine compounds are retold here after patent EP0238982B1, “Anticholinergic compounds, pharmaceutical compositions and method of treatment” (UNIVERSITY OF FLORIDA, priority 1986, dated 1987).

Turning to `COC(=O)C(C(=O)OC1CC2CCC(C1)N2C)c1ccccc1` (racemic) [Compound 1, Methyl (±)-α-(carboxy)-8-methyl-8-azabicyclo[3·2·1]oct-3-yl-benzeneacetate], the “observed First Order Hydrolytic Rate Constants (k) K ± S.E” value in data set [1] (setting [7]) is reported as 1.43 ± 0.12 x 10^-1 min^-1. The half-life in data set [1] (setting [8]) and in data set [1] (setting [9]) was 4.8 min each time. Also, the Kb in data set [2] (setting [10]) was 282 nM.

Consider `CCOC(=O)C(C(=O)OC1CC2CCC(C1)N2C)c1ccccc1` (racemic) [Compound 2, Ethyl (±)-α-(carboxy)-8-methyl-8-azabicyclo[3·2·1]oct-3-yl-benzeneacetate], for which the “observed First Order Hydrolytic Rate Constants (k) K ± S.E” value in data set [1] (setting [7]) is given as 16.9 ± 0.15 x 10^-2 min^-1. Besides, the half-life in data set [1] (setting [8]) is 4.08 min; in data set [1] (setting [9]) it was 4.08 min; in data set [3] (setting [11]), 3.48 min; in data set [3] (setting [12]) it was 3.48 min; in data set [4], 4.19 ± 0.14 min; in data set [5] (human plasma at 37°C), 77.4 h. In addition, in data set [3] (pH 7.4, 37°C), the “Rates of hydrolysis in liver homogenate K ± S.E.” value (“Rates of hydrolysis” for short) was 1.99 ± 0.996 x 10^-1 min^-1. The “kobsd HUMAN PLASMA, 37°C” value in data set [5] is listed as 15.0 ± 0.3 x 10^-5 min^-1. In data set [5], the “observed first order hydrolytic rate constants (K) ± S.E.M.” value is reported as 15.0 ± 0.3 x 10^-5 min^-1. Also, in data set [2] (setting [10]), the Kb is 191 nM.

As for `CC(C)OC(=O)C(C(=O)OC1CC2CCC(C1)N2C)c1ccccc1` (racemic) [Compound 3, isopropyl (±)-α-(carboxy)-8-methyl-8-azabicyclo[3·2·1]oct-3-yl-benzeneacetate], in data set [1] (setting [7]), the “observed First Order Hydrolytic Rate Constants (k) K ± S.E” value is 30 ± 0.77 x 10^-3 min^-1. Besides, the half-life in data set [1] (setting [8]) was 22.8 min; in data set [1] (setting [9]), 22.8 min; in data set [3] (setting [11]), 7.12 min; in data set [3] (setting [12]), 7.12 min; in data set [5] (human plasma at 37°C) it was 186 h. In data set [3] (pH 7.4, 37°C), the “Rates of hydrolysis” value is given as 97.2 ± 0.76 x 10^-3 min^-1. In data set [5], the “kobsd HUMAN PLASMA, 37°C” value is 6.27 ± 0.3 x 10^-5 min^-1. In addition, in data set [5], the “observed first order hydrolytic rate constants (K) ± S.E.M.” value was 6.27 ± 0.3 x 10^-5 min^-1. Also, in data set [2] (setting [10]), the Kb was 28.2 nM.

Consider `CN1C2CCC1CC(OC(=O)C(C(=O)OC1CCCCC1)c1ccccc1)C2` (racemic) [Compound 4, cyclohexyl (±)-α-(carboxy)-8-methyl-8-azabicyclo-[3.2.1]oct-3-yl-benzeneacetate], for which the half-life in data set [1] (setting [13]) is 182 min; in data set [1] (setting [9]) it was 182 min; in data set [3] (setting [11]) it was 18.7 min; in data set [3] (setting [12]), 18.7 min; in data set [5] (human plasma at 37°C) it was 270 h. The “Rates of hydrolysis” value in data set [3] (pH 7.4, 37°C) is listed as 37.0 ± 0.3 x 10^-3 min^-1. Besides, in data set [5], the “kobsd HUMAN PLASMA, 37°C” value was 4.44 ± 0.4 x 10^-5 min^-1. Moreover, the “observed first order hydrolytic rate constants (K) ± S.E.M.” value in data set [5] is given as 4.44 ± 0.4 x 10^-5 min^-1. Besides, the Kb in data set [2] (setting [10]) was 257 nM.

In the case of `CCOC(=O)C(C(=O)OC1CC2CCC(C1)[N+]2(C)C)c1ccccc1` (racemic) [Compound 5, Ethyl (±)-α-(carboxy)-8-methyl-8-azabicyclo[3·2·1]oct-3-yl benzeneacetate methiodide], the half-life was 0.85 min in data set [1] (setting [8]), 0.85 min in data set [1] (setting [9]) and 82.2 h in data set [5] (human plasma at 37°C). Further, the “Rates of hydrolysis” value in data set [3] (pH 7.4, 37°C) is reported as 10.5 ± 0.28 x 10^-2 min^-1. Besides, the half-life at 6000 µM in data set [3] (setting [11]) and in data set [3] (setting [12]) was 6.6 min in each case. The “observed first order hydrolytic rate constants (K) ± S.E.M.” value in data set [5] (human plasma at 37°C, compound 2 average of 4 runs, the rest 3 runs) was 14.1 ± 0.6 x 10^-5 min^-1. Further, the Kb was 13.8 nM in data set [2] (setting [10]) and 14.1 nM in data set [2] (setting [14]).

Consider `C[N+]1(C)C2CCC1CC(OC(=O)C(C(=O)OC1CCCCC1)c1ccccc1)C2` (racemic) [Compound 6, Cyclohexyl (±)-α-(carboxy)-8-methyl-8-azabicyclo-[3·2·1]oct-3-yl benzeneacetate methiodide], for which the half-life in data set [1] (setting [13]) was 1.28 min; in data set [1] (setting [9]), 1.28 min; in data set [3] (setting [11]), 66.8 min; in data set [3] (setting [12]), 66.8 min; in data set [5] (human plasma at 37°C), 183 h. The “Rates of hydrolysis” value in data set [3] (pH 7.4, 37°C) is listed as 10.4 ± 0.23 x 10^-3 min^-1. Also, the “kobsd HUMAN PLASMA, 37°C” value in data set [5] is listed as 6.31 ± 0.8 x 10^-5 min^-1. In addition, the “observed first order hydrolytic rate constants (K) ± S.E.M.” value in data set [5] was 6.31 ± 0.8 x 10^-5 min^-1. In addition, the Kb in data set [2] (setting [10]) is 44.7 nM.

With `CN1C2CCC1CC(OC(=O)C(C(=O)O)c1ccccc1)C2` (racemic) [Compound 7, (±)-α-(carboxy)-8-methyl-8-azabicyclo-[3·2·1]oct-3-yl benzeneacetic acid], the figures for the half-life in data set [1] (setting [13]), in data set [1] (setting [9]) and in data set [6] were 350 min, 350 min and 331 ± 4.31 min, respectively. In data set [2] (setting [10]), the Kb was 631 nM.

For the compound `CC(C)OC(=O)C(C(=O)OC1CC2CCC(C1)[N+]2(C)C)c1ccccc1` (racemic) [VIc, isopropyl (±)-α-(carboxy)-8-methyl-8-azabicyclo[3·2·1]oct-3-yl-benzeneacetate methiodide], the Kb in data set [2] (setting [14]) is 24.5 nM.

Take `CN1[C@@H]2CC[C@H]1C[C@@H](OC(=O)C(CO)c1ccccc1)C2` (some centres unmarked) [Atropine, reference compound]: in data set [2], the PA2 is listed as 8.29 and the “PA2 TERTIARY AMINE” value is given as 8.29.
